From US6943162B2, “Piperazinyltriazines as estrogen receptor modulators” (SmithKline Beecham Corporation, priority 2001, dated 2005) come the findings set out here.

Where two headings read alike, the source gives them in different places.

One assay deals with T1, ERβ (Homo sapiens, UniProt Q92731).
T1 construct: GST (N); made in house; host or cells: E. coli BL21(DE3)pLysS
The experiment in a line: Estrogen receptor competition binding assay (SPA, [3H]Estradiol), ERβ. As to the method:
(§1) The ligand binding domain of both ERα and ERβ were subcloned into pGEX-2T vector which had been modified to contain KpnI and BamHI restriction sites in the multiple cloning region. GST-hERα and GST-hERβ proteins were made by transforming BL21(DE3)pLYS S competent cells with the appropriate expression plasmid. […] The cells were collected by centrifugation and resuspended in lysis buffer (50 mM Tris pH 7.9; 250 mM KCl; 1% Triton X-100; 10 mM DTT; 1 mM PMSF). The lysate was then placed on dry ice until completely frozen. […] The supernatant was retained and glycerol was added to a final concentration of 10%. The protein content of the supernatant was quantitated using the BioRad Protein Assay Reagent The protein was then stored at −80° C. until used in the binding assay.
(§2) Polylysine coated Yttrium Silicate SPA beads (Amersham #RPNQ 0010) are resuspended in assay buffer [10 mM potassium phosphate buffer pH 7.0 containing 2 mM EDTA, 50 mM NaCl, 1 mM DTT, 2 mM CHAPS, 10% glycerol] to a concentration of 1 g/60 ml. […] [2, 4, 6, 7, 16, 17-3H(N)]-Estradiol is added as a 30 ul aliquot to give a final assay concentration of 1 nM. […] The plates are shaken vigorously for two hours then counted on a Packard TopCount using the protocol for counting tritium yttrium silicate SPA beads. Data analysis was done by standard methods. % Bound was calculated for each concentration of each test compound using the equation % Bound=100*((Test−NS)/(T−NS)). % Bound was plotted vs concentration and curve fitting was accomplished using non-linear regression.

A further assay has as its target T2, ERα (Homo sapiens, UniProt P03372).
T2 construct: GST (N); made in house; host or cells: E. coli BL21(DE3)pLysS
T2 sequence (P03372 311-547 limits assumed): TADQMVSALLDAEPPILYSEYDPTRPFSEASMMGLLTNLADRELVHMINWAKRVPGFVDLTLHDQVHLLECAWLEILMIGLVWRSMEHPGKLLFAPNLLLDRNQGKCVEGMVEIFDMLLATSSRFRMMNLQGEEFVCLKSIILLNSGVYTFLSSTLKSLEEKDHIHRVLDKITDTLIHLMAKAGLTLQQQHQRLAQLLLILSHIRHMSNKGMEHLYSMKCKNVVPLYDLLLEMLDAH
The experiment in a line: Estrogen receptor competition binding assay (SPA, [3H]Estradiol), ERα. As to the method:
as §1, §2

[1] abbreviates: competition binding assay, GST-hERα ligand binding domain, 1 nM [3H]Estradiol, (n) = number of determinations, read-out: Avg. ER α pKi (n) (converted).

T1 sequence (Q92731 264-498 limits assumed): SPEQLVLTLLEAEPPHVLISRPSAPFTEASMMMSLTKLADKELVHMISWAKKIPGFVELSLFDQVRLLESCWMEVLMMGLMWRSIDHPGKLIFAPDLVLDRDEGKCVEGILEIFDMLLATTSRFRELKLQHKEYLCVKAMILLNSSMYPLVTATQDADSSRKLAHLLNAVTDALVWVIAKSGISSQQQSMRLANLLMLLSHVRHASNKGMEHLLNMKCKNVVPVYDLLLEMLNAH

`C=CCN1CCN(c2nc(NCCc3ccc(O)cc3)nc(N(C)CCCc3ccc(Cl)cc3)n2)CC1` [Example 12, 4-[2-({4-(4-ally-1-piperazinyl)-6-[[3-(4-chlorophenyl)propy](methyl)amino]-1,3,5-triazin-2-yl}amino)ethyl]phenol] gave a Ki at ERβ of 22.9 nM.

Take `CN1CCN(c2nc(N(C)CCCc3ccc(F)cc3)nc(N(C)CCc3ccc(O)cc3)n2)CC1` [Example 20, 4-(2-{[4-[[3-(4-fluorophenyl)propyl](methyl)amino]-6-(4-methyl-1-piperazinyl)-1,3,5-triazin-2-yl]methylamino}ethyl)phenol]: the Ki on ERα (setting [1]) is 562 nM; at ERβ, 23.4 nM.

Molecule `CN(CCCc1ccc(Cl)cc1)c1nc(NCCc2ccc(O)cc2)nc(N2CCN(Cc3ccccn3)CC2)n1` [Example 5, 4-[2-({4-[[3-(4-chlorophenyl)propyl](methyl)amino]-6-[4-(2-pyridinylmethyl)-1-piperazinyl]-1,3,5-triazin-2-yl}amino)ethyl]phenol] gave a Ki at ERβ of 38 nM.

Regarding `COc1cccc(C(=O)N2CCN(c3nc(NCCc4ccc(O)cc4)nc(N(C)CCCc4ccc(Cl)cc4)n3)CC2)c1` [Example 3, 4-[2-({4-[[3-(4-chlorophenyl)propyl](methyl)amino]-6-[4-(3-methoxybenzoyl)-1-piperazinyl]-1,3,5-triazin-2-yl}amino)ethyl]phenol], the Ki on ERα (setting [1]) is 1780 nM; on ERβ, 95.5 nM.

Turning to `CN(CCCc1ccc(F)cc1)c1nc(N(C)CCc2ccc(O)cc2)nc(N2CCNCC2)n1` [Example 19, 4-(2-{[4-[[3-(4-fluorophenyl)propyl](methyl)amino]-6-(1-piperazinyl)-1,3,5-triazin-2-yl]methylamino}ethyl)phenol], the Ki at ERα (setting [1]) is 550 nM; at ERβ, 24.5 nM.

With `CN(CCCc1ccc(Cl)cc1)c1nc(N(C)CCc2ccc(O)cc2)nc(N2CCNCC2)n1` [Example 14, 4-{2-[[4-[[3-(4-chlorophenyl)propyl](methyl)amino]-6-(1-piperazinyl)-1,3,5-triazin-2-yl](methyl)amino]ethy}phenol], the Ki at ERα (setting [1]) is 562 nM; at ERβ, 26.3 nM.

`CN1CCN(c2nc(NC3CCc4cc(O)ccc4C3)nc(SCCCc3ccccc3)n2)CC1` (stereo not shown) [Example 10, 6-({4-(4-methyl-1-piperazinyl)-6-[(3-phenylpropyl)sulfanyl]-1,3,5-triazin-2-yl}amino)-5,6,7,8-tetrahydro-2-naphthalenol]: the Ki at ERα (setting [1]) was 398 nM; at ERβ, 63.1 nM.

As for `CN(CCCc1ccc(Cl)cc1)c1nc(NCCc2ccc(O)cc2)nc(N2CCN(C/C=C/c3ccccc3)CC2)n1` [Example 13, 4-{2-[(4-[[3-(4-chlorophenyl)propyl](methyl)amino]-6-{4-[(2E)-3-phenyl-2-propenyl]-1-piperazinyl}-1,3,5-triazin-2-yl)amino]ethyl]phenol], the Ki was 141 nM on ERα (setting [1]) and 10 nM at ERβ.

In the case of `CN(CCCc1ccc(Cl)cc1)c1nc(NCCc2ccc(O)cc2)nc(N2CCNCC2)n1` [Example 1, 4-(2-{[4-[[3-(4-chlorophenyl)propyl](methyl)amino]-6-(1-piperazinyl)-1,3,5-triazin-2-yl]amino}ethyl)phenol], the Ki on ERα (setting [1]) was 339 nM; on ERβ it was 10.5 nM.

As to `CN(CCCc1ccc(Cl)cc1)c1nc(NCCc2ccc(O)cc2)nc(N2CCN(Cc3cccnc3)CC2)n1` [Example 6, 4-[2-({4-[[3-(4-chlorophenyl)propyl](methyl)amino]-6-[4-(3-pyridinylmethyl)-1-piperazinyl]-1,3,5-triazin-2-yl}amino)ethyl]phenol], the Ki at ERβ is 31.6 nM.

As to `CN(CCCc1ccc(F)cc1)c1nc(NCCc2ccc(O)cc2)nc(N2CCNCC2)n1` [Example 18, 4-(2-{[4-[[3-(4-fluorophenyl)propyl](methyl)amino]-6-(1-piperazinyl)-1,3,5-triazin-2-yl]amino}ethyl)phenol], the values for the Ki at ERα (setting [1]) and on ERβ were 372 nM and 15.8 nM, respectively.

`CN1CCN(c2nc(N(C)CCCc3ccc(Cl)cc3)nc(N(C)CCc3ccc(O)cc3)n2)CC1` [Example 15, 4-(2-{[4-[[3-(4-chlorophenyl)propyl](methyl)amino]-6-(4-methyl-1-piperazinyl)-1,3,5-triazin-2-yl](methyl)amino}ethyl)phenol]: the Ki was 380 nM at ERα (setting [1]) and 13.2 nM on ERβ.

Turning to `CN(CCCc1ccc(Cl)cc1Cl)c1nc(N(C)CCc2ccc(O)cc2)nc(N2CCNCC2)n1` [Example 23, 4-(2-{[4-[[3-(2,4-dichlorophenyl)propyl](methyl)amino]-6-(1-piperazinyl)-1,3,5-triazin-2-yl]methylamino}ethyl)phenol], the results for the Ki at ERα (setting [1]) and on ERβ were 501 nM and 33.1 nM, respectively.

On to `CN(CCCc1ccc(Cl)cc1)c1nc(NCCc2ccc(O)cc2)nc(N2CCN(/C(=C/C(=O)c3ccccc3)C(F)(F)F)CC2)n1` [Example 8, (2E)-3-[4-(4-[[3-(4-chlorophenyl)propyl](methyl)amino]-6-{[2-(4-hydroxyphenyl)ethyl]amino}-1,3,5-triazin-2-yl)-1-piperazinyl]-4,4,4-trifluoro-1-phenyl-2-buten-1-one], for which the figures for the Ki at ERα (setting [1]) and on ERβ were 1580 nM and 83.2 nM, respectively.

On to `CN(CCCc1ccc(C(F)(F)F)cc1)c1nc(N(C)CCc2ccc(O)cc2)nc(N2CCNCC2)n1` [Example 22, 4-(2-{methyl[4-(methyl{3-[4-(trifluoromethyl)phenyl]propyl}amino)-6-(1-piperazinyl)-1,3,5-triazin-2-yl]amino}ethyl)phenol], for which the Ki on ERα (setting [1]) is 550 nM; at ERβ, 85.1 nM.

For `CN(CCCc1ccc(Cl)cc1)c1nc(N(C)CCc2ccc(O)cc2)nc(N2CCN(CCO)CC2)n1` [Example 17], the values for the Ki on ERα (setting [1]) and on ERβ were 603 nM and 28.8 nM, respectively.

Consider `C[C@@H]1CN(c2nc(N(C)CCCc3ccc(Cl)cc3)nc(N(C)CCc3ccc(O)cc3)n2)C[C@H](C)N1` [Example 16, 4-(2-{[4-[[3-(4-chlorophenyl)propyl](methyl)amino]-6-(3,5-cis-dimethyl-1-piperazinyl)-1,3,5-triazin-2-yl](methyl)amino}ethyl)phenol], for which the results for the Ki at ERα (setting [1]) and on ERβ were 229 nM and 11 nM, respectively.

For the molecule `CN(C)C(=O)CCN1CCN(c2nc(NCCc3ccc(O)cc3)nc(N(C)CCCc3ccc(Cl)cc3)n2)CC1` [Example 9, 3-[4-(4-[[3-(4-chlorophenyl)propyl](methyl)amino]-6-{[2-(4-hydroxyphenyl)ethyl]amino}-1,3,5-triazin-2-yl)-1-piperazinyl]-N,N-dimethylpropanamide], the Ki at ERα (setting [1]) is 355 nM; at ERβ it was 20 nM.

Take `CN(CCCc1ccc(F)c(F)c1)c1nc(N(C)CCc2ccc(O)cc2)nc(N2CCNCC2)n1` [Example 21, 4-(2-{[4-[[3-(3,4-difluorophenyl)propyl](methyl)amino]-6-(1-piperazinyl)-1,3,5-triazin-2-yl]methylamino}ethyl)phenol]: the Ki at ERα (setting [1]) was 214 nM; at ERβ it was 23.4 nM.

`CN(CCCc1ccc(Cl)cc1)c1nc(NCCc2ccc(O)cc2)nc(N2CCN(CCO)CC2)n1` [Example 24, 4-[2-({4-[[3-(4-chlorophenyl)propyl](methyl)amino]-6-[4-(2-hydroxyethyl)-1-piperazinyl]-1,3,5-triazin-2-yl}amino)ethyl]phenol]: the Ki at ERα is 339 nM; on ERβ, 14.8 nM.

For `CN(CCCc1ccc(Cl)cc1)c1nc(NCCc2ccc(O)cc2)nc(N2CCN(C(=O)c3ccccn3)CC2)n1` [Example 4, 4-[2-({4-[[3-(4-chlorophenyl)propyl](methyl)amino]-6-[4-(2-pyridinylcarbonyl)-1-piperazinyl]-1,3,5-triazin-2-yl}amino)ethyl]phenol], the Ki on ERα (setting [1]) is 4370 nM; on ERβ it was 155 nM.

In the case of `Cc1nc(CN2CCN(c3nc(NCCc4ccc(O)cc4)nc(N(C)CCCc4ccc(Cl)cc4)n3)CC2)cs1` [Example 7, 4-{2-[(4-[[3-(4-chlorophenyl)propyl](methyl)amino]-6-{4-[(2-methyl-1,3-thiazol-4-yl)methyl]-1-piperazinyl}-1,3,5-triazin-2-yl)amino]ethyl}phenol], at ERβ, the Ki is 18.6 nM.
